Among the data in article PMC4309170, “The dipeptidyl peptidase IV inhibitors vildagliptin and K-579 inhibit a phospholipase C: a case of promiscuous scaffolds in proteins” (F1000Research, 2015) are IC50 values, retold here.

The target of the assay is phosphoinositide-specific phospholipase C (PI-PLC) (Bacillus cereus, UniProt P14262). In words: PI-PLC-induced liposome (LUV) aggregation assay, turbidity at […] nm, dose-response. In kind it is biochemical.
phosphoinositide-specific phospholipase C (PI-PLC), sequence (P14262 32-329 limits assumed): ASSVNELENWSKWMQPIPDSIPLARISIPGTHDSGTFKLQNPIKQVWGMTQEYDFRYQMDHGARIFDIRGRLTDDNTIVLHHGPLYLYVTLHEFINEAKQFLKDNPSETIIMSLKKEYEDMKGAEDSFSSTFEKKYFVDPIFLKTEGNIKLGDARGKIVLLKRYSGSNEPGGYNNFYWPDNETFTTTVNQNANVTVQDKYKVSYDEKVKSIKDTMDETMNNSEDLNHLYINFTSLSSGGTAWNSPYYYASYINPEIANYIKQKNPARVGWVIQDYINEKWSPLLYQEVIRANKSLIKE

`N#C[C@@H]1CCCN1C(=O)CNC12CC3CC(CC(O)(C3)C1)C2` [LAF-237, 1-[[(3-hydroxy-1-adamantyl)amino]acetyl]-2-cyano-(S)-pyrrolidine]: half-maximal inhibition (IC50) required 100 µM.
